Source: patent publication US8859541B2, “6-alkynylpyridines” (Boehringer Ingelheim International GmbH, priority 2012, dated 2014)

Assays:
cIAP1 BIR3 = target: T1, cIAP1 BIR3 (Homo sapiens, UniProt Q13490); assay: cIAP1 BIR3 binding assay (DELFIA), displacement of SMAC peptide; details: GST-fusion BIR3 domain (aa 256 to 363) 10 nM, SMAC peptide 10 nM; activity of the (S)-isomers
T1 construct: covering amino acids 256 to 363; cIAP1 BIR3; made in house; host or cells: E. coli
Method: Biological Methods XIAP BIR3 and cIAP1 BIR3 Binding Assays (DELFIA)
Peptide […]-Lys(Biotin), representing the N-terminus of mature human SMAC (SMAC peptide), was used as interaction partner in the protein-peptide interaction assay.
BIR3 domains (10 nM) were incubated with SMAC peptide (10 nM) in Assay Buffer (50 mM Tris, 120 mM NaCl, 0.1% BSA, 1 mM DTT, 0.05% TritonX100) for one hour at room temperature in the presence of inhibitiory compounds. The assay mixture was transferred to a strepatvidin coated plate and incubated for one hour at room temperature to allow binding of the biotinylated peptide and associated BIR3 domains to the plate. After several washing steps Eu labeled anti-GST antibody (e.g. Perkin Elmer DELFIA Eu-N1-antiGST AD0250) was added to detect BIR3 domain-SMAC peptide interactions according to Perkin Elmer's instructions. […] Time resolved Europium fluoresecence was measured in a Wallac Victor using Standard assay settings.
DELFIA assay results were plotted against compound concentrations and Software GraphPad Prizm was used to calculate half maximal inhibitory concentrations (IC50 values).

XIAP BIR3 = target: T2, XIAP BIR3 (Homo sapiens, UniProt P98170); assay: XIAP BIR3 binding assay (DELFIA), displacement of SMAC peptide; details: GST-fusion BIR3 domain (aa 241 to 356) 10 nM, SMAC peptide 10 nM; activity of the (S)-isomers
T2 construct: covering amino acids 241 to 356; XIAP BIR3; made in house; host or cells: E. coli
Summary of the method: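 Each BIR3 domain (10 nM) incubated with biotinylated N-terminal SMAC peptide (10 nM) and compound for 1 h at room temp in Tris/NaCl buffer with BSA, DTT and Triton X-100. Captured on streptavidin plates; bound BIR3 detected by Eu-labelled anti-GST time-resolved fluorescence, giving IC50 values.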

T2 sequence (P98170 241-356): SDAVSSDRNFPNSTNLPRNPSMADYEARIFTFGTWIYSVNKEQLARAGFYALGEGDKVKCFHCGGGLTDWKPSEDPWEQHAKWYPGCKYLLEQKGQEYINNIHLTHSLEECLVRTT
T1 sequence (Q13490 256-363): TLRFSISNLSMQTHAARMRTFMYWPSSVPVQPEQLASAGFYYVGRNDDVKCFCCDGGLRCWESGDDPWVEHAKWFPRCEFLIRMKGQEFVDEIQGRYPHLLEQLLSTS

IC50 (cIAP1 BIR3) [nM]	IC50 (XIAP BIR3) [nM]	Structure (SMILES)
12	96	CNC(C)C(=O)Nc1ccc(-c2cncc(C(=O)OC)c2)c(C#Cc2cccc(C)c2)n1 (centres unmarked) [Example 13, methyl 5-[6-[[2-(methyl-amino)propanoyl]amino]-2-[2-(3-methylphenyl)ethynyl]-pyridin-3-yl]pyridine-3-carboxylate]
1	579	CNC(C)C(=O)Nc1ccc(-c2c(C)nc3ccccn23)c(C#Cc2ccc3c(ccc(=O)n3C)c2)n1 (centres unmarked) [Example 26, 2-(methylamino)-N-[5-(2-methylimidazo[1,2-a]pyridin-3-yl)-6-[2-(1-methyl-2-oxoquinolin-6-yl)ethynyl]pyridin-2-yl]propanamide]
1	200	CNC(C)C(=O)Nc1ccc(-c2c(C)nc3ccccn23)c(C#Cc2ccc3ncccc3c2)n1 (centres unmarked) [Example 28, 2-(methylamino)-N-[5-(2-methylimidazo[1,2-a]pyridin-3-yl)-6-(2-quinolin-6-ylethynyl)-pyridin-2-yl]propanamide]
1	145	CNC(C)C(=O)Nc1ccc(-c2c(C)nc3ccccn23)c(C#Cc2ccc3cnccc3c2)n1 (centres unmarked) [Example 29, N-[6-(2-isoquinolin-6-yl-ethynyl)-5-(2-methyl-imidazo[1,2-a]pyridin-3-yl)-pyridin-2-yl]-2-(methylamino)-propanamide]
1	417	CNC(C)C(=O)Nc1ccc(-c2c(C)nc3ccccn23)c(C#Cc2ccc3nc(C)ccc3c2)n1 (centres unmarked) [Example 30, 2-(methylamino)-N-[5-(2-methylimidazo[1,2-a]pyridin-3-yl)-6-[2-(2-methylquinolin-6-yl)ethynyl]pyridin-2-yl]propan-amide]
1	228	CNC(C)C(=O)Nc1ccc(-c2c(C)nc3ccccn23)c(C#Cc2ccc3c(c2)CN(C)C3=O)n1 (centres unmarked) [Example 31, 2-(methylamino)-N-[5-(2-methylimidazo[1,2-a]pyridin-3-yl)-6-[2-(2-methyl-1-oxo-3H-isoindol-5-yl)ethynyl]pyridin-2-yl]propanamide]
1	277	CNC(C)C(=O)Nc1ccc(-c2c(C)nc3ccccn23)c(C#Cc2ccc3c(c2)OCC(=O)N3C)n1 (centres unmarked) [Example 33, 2-(methylamino)-N-[5-(2-methylimidazo[1,2-a]pyridin-3-yl)-6-[2-(4-methyl-3-oxo-1,4-benzoxazin-7-yl)ethynyl]-pyridin-2-yl]propanamide]
1	279	CNC(C)C(=O)Nc1ccc(-c2c(C)nc3ccccn23)c(C#Cc2ccc(-c3ccon3)cc2)n1 (centres unmarked) [Example 34, 2-(methylamino)-N-[5-(2-methylimidazo[1,2-a]pyridin-3-yl)-6-[2-[4-(1,2-oxazol-3-yl)-phenyl]ethynyl]pyridin-2-yl]-propanamide]
1	1480	CNC(C)C(=O)Nc1ccc(-c2c(C)nc(N3CCOCC3)nc2C)c(C#Cc2ccc3c(ccc(=O)n3C)c2)n1 (centres unmarked) [Example 35, N-[5-(4,6-dimethyl-2-morpholin-4-ylpyrimidin-5-yl)-6-[2-(1-methyl-2-oxoquinolin-6-yl)ethynyl]pyridin-2-yl]-2-(methylamino)propanamide]
1	112	CNC(C)C(=O)Nc1ccc(-c2c(C)nc3ccccn23)c(C#Cc2ccc(-c3cccnc3)cc2)n1 (centres unmarked) [Example 36, 2-(methylamino)-N-[5-(2-methylimidazo[1,2-a]pyridin-3-yl)-6-[2-(4-pyridin-3-ylphenyl)-ethynyl]pyridin-2-yl]propan-amide]
1	166	CNC(C)C(=O)Nc1ccc(-c2c(C)nc3ccccn23)c(C#Cc2ccc(-n3cncn3)cc2)n1 (centres unmarked) [Example 37, 2-(methylamino)-N-[5-(2-methylimidazo[1,2-a]pyridin-3-yl)-6-[2-[4-(1,2,4-triazol-1-yl)-phenyl]ethynyl]pyridin-2-yl]-propanamide]
1	87	CNC(C)C(=O)Nc1ccc(-c2c(-c3ccncc3)nc3cc(C)ccn23)c(C#Cc2ccc(Cl)c(Cl)c2)n1 (centres unmarked) [Example 39, N-[6-[2-(3,4-dichlorophenyl)-ethynyl)-5-(7-methyl-2-pyridin-4-ylimidazo[1,2-a]pyridin-3-yl)-pyridin-2-yl]-2-(methylamino)-propanamide]
1	123	CNC(C)C(=O)Nc1ccc(-c2c(C)nc3ccccn23)c(C#Cc2ccc(C#N)c(Cl)c2)n1 (centres unmarked) [Example 41, N-[6-[2-(3-chloro-4-cyanophenyl)ethynyl]-5-(2-methylimidazo[1,2-a]pyridin-3-yl)pyridin-2-yl]-2-(methyl-amino)propanamide]
1	94	CNC(C)C(=O)Nc1ccc(-c2c(C)nc3ccccn23)c(C#Cc2ccc3ncsc3c2)n1 (centres unmarked) [Example 42, N-[6-[2-(1,3-benzothiazol-6-yl)-ethynyl]-5-(2-methyl-imidazo[1,2-a]pyridin-3-yl)-pyridin-2-yl]-2-(methylamino)-propanamide]
1	136	CNC(C)C(=O)Nc1ccc(-c2c(C)nc3ccccn23)c(C#Cc2ccc(-c3cnco3)cc2)n1 (centres unmarked) [Example 44, 2-(methylamino)-N-[5-(2-methylimidazo[1,2-a]pyridin-3-yl)-6-[2-[4-(1,3-oxazol-5-yl)-phenyl]ethynyl]pyridin-2-yl]-propanamide]
2	431	CNC(C)C(=O)Nc1ccc(-c2c(C)ncnc2C)c(C#Cc2ccc3cnccc3c2)n1 (centres unmarked) [Example 45, N-[5-(4,6-dimethylpyrimidin-5-yl)-6-(2-isoquinolin-6-yl-ethynyl)pyridin-2-yl]-2-(methyl-amino)propanamide]
1	145	CNC(C)C(=O)Nc1ccc(-c2c(C)nc3cc(Cl)ccn23)c(C#Cc2ccc3ncccc3c2)n1 (centres unmarked) [Example 46, N-[5-(7-chloro-2-methyl-imidazo[1,2-a]pyridin-3-yl)-6-(2-quinolin-6-ylethynyl)pyridin-2-yl]-2-(methylamino)propan-amide]
1	180	CNC(C)C(=O)Nc1ccc(-c2c(C)nc3cc(F)ccn23)c(C#Cc2ccc3ncccc3c2)n1 (centres unmarked) [Example 47, N-[5-(7-fluoro-2-methyl-imidazo[1,2-a]pyridin-3-yl)-6-(2-quinolin-6-ylethynyl)pyridin-2-yl]-2-(methylamino)propan-amide]
–	5920	CC(N)C(=O)Nc1cccc(C#Cc2nccs2)n1 (centres unmarked) [Example 237, 2-amino-N-[6-[2-(1,3-thiazol-2-yl)ethynyl]pyridin-2-yl]propanainide]
–	7190	CC(N)C(=O)Nc1cccc(C#Cc2cscn2)n1 (centres unmarked) [Example 238, 2-amino-N-[6-[2-(1,3-thiazol-4-yl)ethynyl]pyridin-2-yl]propanamide]
–	4580	CC(N)C(=O)Nc1cccc(C#Cc2cncs2)n1 (centres unmarked) [Example 239, 2-amino-N-[6-[2-(1,3-thiazol-5-yl)ethynyl]pyridin-2-yl]propanamide]
–	3200	CC(N)C(=O)Nc1cccc(C#Cc2ccco2)n1 (centres unmarked) [Example 241, 2-amino-N-[6-[2-(furan-2-yl)ethynyl]pyridin-2-yl]propanamide]
–	4230	CC(N)C(=O)Nc1cccc(C#Cc2ccc3ccccc3c2)n1 (centres unmarked) [Example 242, 2-amino-N-[6-(2-naphthalen-2-ylethynyl)pyridin-2-yl]propanamide]
–	160	CNC(C)C(=O)Nc1ccc(N(C)S(=O)(=O)c2ccccc2)c(C#Cc2ccccc2)n1 (centres unmarked) [Example 243, N-[5-[benzenesulfonyl(methyl)amino]-6-(2-phenylethynyl)pyridin-2-yl]-2-(methylamino)propanamide]
–	1470	CNC(C)C(=O)Nc1ccc(N(C)C(=O)C2CCOCC2)c(C#Cc2ccccc2)n1 (centres unmarked) [Example 244, N-methyl-N-[6-[2-(methylamino)propanoylamino]-2-(2-phenylethynyl)pyridin-3-yl]oxane-4-carboxamide]
–	1290	CNC(C)C(=O)Nc1ccc(NC(=O)C2CCCC2)c(C#Cc2ccccc2)n1 (centres unmarked) [Example 245, N-[6-[[2-(methylamino)-propanoyl]amino]-2-(2-phenylethynyl)pyridin-3-yl]-cyclopentanecarboxamide]
–	1520	CNC(C)C(=O)Nc1ccc(NC(=O)C2CCOCC2)c(C#Cc2ccccc2)n1 (centres unmarked) [Example 246, N-[6-[[2-(methylamino)-propanoyl]amino]-2-(2-phenylethynyl)pyridin-3-yl]-oxane-4-carboxamide]
–	745	CNC(C)C(=O)Nc1ccc(N(C)C(=O)c2ccccc2)c(C#Cc2ccccc2)n1 (centres unmarked) [Example 247, N-methyl-N-[6-[[2-(methyl-amino)propanoyl]amino]-2-(2-phenylethynyl)pyridin-3-yl]-benzamide]
–	794	CNC(C)C(=O)Nc1ccc(N(C)C(=O)C2CCCC2)c(C#Cc2ccccc2)n1 (centres unmarked) [Example 248, N-methyl-N-[6-[[2-(methyl-amino)propanoyl]amino]-2-(2-phenylethynyl)pyridin-3-yl]-cyclopentanecarboxamide]
